Measurements: patent US20040087561A1, “Treatment of sexual dysfunction” (priority 2000, published 2004)

Experiments:
[1] = tested on: ovariectomised female Sprague Dawley rats; experiment: Female rat sexual proceptivity (time investigating male vs female stimulus); type: in vivo
Protocol: Ovariectomised adult female Sprague Dawley rats (180-200 g, from Charles River) were housed in groups of 6 in a reversed lighting system of 12 h light:dark (lights off 7.00-19.00 h). Two weeks after ovariectomy they were used for sexual activity tests. The experiments started at least 5 h into the dark period.
Tests were carried out in a circular arena of 90 cm diameter, surrounded by a 30 cm high wall. Two small cages with wire-mesh front (15×15 cm) are fixed into the wall such that the front of the cage is <> with the wall and the 2 cages are opposite each other. They contained two stimuli animals: an intact sexually experienced male and a receptive female (ovariectomised, primed with 5 μg oestradiol benzoate dissolved in corn oil and injected subcutaneously 48 hours before the test and with 0.5 mg of progesterone four hours before the test). Sexually naive test and control animals were used. Forty eight hours before the tests, both the test and control animals were primed with 5 μg oestradiol benzoate. For animals used as positive controls, progesterone (0.5 mg/0.1 ml) was dissolved in corn oil and administered subcutaneously (s.c.), 4 h before the test. Test and control animals were introduced one at a time for 10 minute periods into the arena. During the 10 min test, the time that the test or positive control animal spent investigating each stimulus animal was noted. The arena was thoroughly cleaned between animals. The position of the male/female stimuli boxes was randomised between animals, in order to avoid place preference. The difference in the percentage of time spent investigating the male minus the female stimuli was calculated, out of the total time spent investigating stimuli animals.
Compound (1) was dissolved in 100% β-cyclodextrin and then diluted with saline to a final solution of 50% 2-hydroxypropyl-β-cyclodextrin. It was administered intraperitoneally (i.p.) at doses of 3 and 10 mg/kg, in a dosing volume of 1 ml/kg, 1 h before tests. Progesterone (0.5 mg/0.1 ml) was dissolved in corn oil and administered subcutaneously (s.c.), 4 h before test, as a positive control.
Ovariectomised adult female Sprague Dawley rats (180-200 g) were housed in groups of 5 in a reversed lighting system of 12 h light:dark (lights off 5.00-17.00 h). They were used for the experiments at least two weeks after ovariectomy. Forty eight hours before tests, the animals were primed with oestradiol benzoate (5 μg/0.1 ml in corn oil, s.c.). On day 1, progesterone (0.5 mg/0.1 ml, in corn oil, s.c.) was administered to one of the groups 4 h before tests, as a positive control. Compound (1) (15 mg/kg, i.p.) was administered in 50% 2-hydroxypropyl-β-cyclodextrin, 1 h before tests. The test lasted 10 minutes and was carried out as described before. The difference in the percentage of time spent investigating the male minus the female stimuli was calculated, out of the total time spent investigating stimuli animals. Animals were submitted to a test on day 1 and on day 15. From day 2 to 14 the Compound (1) group received a daily injection of the compound (15 mg/kg, i.p.), while both the vehicle and the progesterone groups received an injection of vehicle. On day 15 the test took place again, as described for day 1.
Ovariectomised female rats (Sprague Dawley, obtained from Charles River, UK) were stereotaxically implanted (coordinates 0.89 mm behind Bregma, 1.3 mm lateral and 2.5 mm vertical) with stainless steel cannulae (6 mm long, O.D. 0.75 mm), held in place with dental cement. Animals were housed in groups of three and returned to a reversed lighting system of 12 h light:dark (lights off 5.00-17.00 h). Correct placement of the cannulae was assessed post-mortem. Rats were used for tests two weeks after ovariectomy (one week after cannulation). The experiments started at least 5 h into the dark period. […]

[2] = tested on: Sprague Dawley male rats; experiment: Sexual behaviour of sexually dysfunctional (fluoxetine-treated) male rats; type: in vivo, rat; details: fluoxetine 20 mg/kg i.p. 3 days (vs vehicle+vehicle); day 4 Compound (1) 15 mg/kg or yohimbine 2 mg/kg i.p. 1 h before test (vs fluoxetine+vehicle)
Protocol: Sprague Dawley male rats (Charles River, UK) were kept, 4 rats per cage, in a reversed lighting regime (12:12 hours, lights off at 5.00 h), with free access to food and water. The rats were pre-selected by being presented with a receptive female at […], i.e. every third day (haying 2 clear days between presentations) until completing 6-7 trials of baseline determination. The animals showing consistently vigorous behaviour (ejaculatory latencies <300 s) were chosen for further experiments. Animals were treated for 3 consecutive days with either vehicle (water) or fluoxetine (20 mg/kg, i.p., in a 2 ml/kg dosing volume). On the fourth day, the animals treated with water received vehicle (veh+veh) and the animals treated with fluoxetine received one of the three following treatments: Compound (1) (15 mg/kg, dissolved in 50% 2-hydroxypropyl-β-cyclodextrin in saline), vehicle (cyclodextrine), or yohimbine (2 mg/kg dissolved in water). All treatments were administered i.p. in a 1 ml/kg volume, 1 h before tests.
For all the sexual behaviour tests, the males were placed in an observation arena (50-60 cm diameter), starting 5 hours into the dark cycle and observed under red illumination. Three to 4 minutes after placing the male in the arena, a receptive female (ovariectomised, bearing a 7 mm Silastic implant of oestradiol benzoate) was introduced to the arena and the following parameters noted: Mount Latency: time (in seconds) taken between introduction of female and first mount. A maximum time of 15 minutes (900 seconds) was allowed, and the test terminated if no mounts were recorded within that time (FIG. 16), Ejaculation Latency: time (in seconds) taken from first intromission to ejaculation. A maximum time of 30 minutes (1800 seconds) was given, and the test terminated if ejaculation was not achieved in that time (FIG. 17), Percentage of males achieving ejaculation within 30 minutes was calculated (FIG. 18).
A one-way ANOVA followed by Dunnett's t test was used to compare the fluoxetine+vehicle group and other groups for mount and ejaculatory latencies. Percentage of animals ejaculating was analysed using a Chi-square test followed by Fisher's test. (*: P<0.05, **: P<0.01, ***: P<0.001; n=15-19).

COc1ccc(C2(CNC(=O)[C@](C)(Cc3c[nH]c4ccccc34)NC(=O)Nc3ccc([N+](=O)[O-])cc3)CCCCC2)nc1 [Compound (1), (S) 3-(1H-Indol-3-yl)-N-[1-(5-methoxy-pyridin-2-yl)-cyclohexyl-methyl]-2-methyl-2-[3-(4-nitro-phenyl)-ureido]-propionamide]
effect on proceptivity, day 1 ([1]; day 1, Compound (1) 15 mg/kg i.p. 1 h before, progesterone 0.5 mg/0.1 ml s.c. 4 h before, vs vehicle, P<0.01): stimulatory effect on proceptivity | MED, percentage of time spent investigating the male stimulus (proceptivity) ([1]; i.c.v., 3-30 μg/rat, 10 min before test): 10 µg | percentage of time spent investigating the male stimulus (proceptivity) ([1]; i.c.v., dose-dependently 3-30 μg/rat, 10 min before test): increased the percentage of time spent investigating the male stimulus | MED, percentage of time spent investigating the male stimulus (proceptivity) ([1]; i.p., 3 and 10 mg/kg, 1 h before test, 50% 2-hydroxypropyl-β-cyclodextrin): 10 mg/kg | percentage of time spent investigating the male stimulus (proceptivity) ([1]; i.p., dose-dependently 3 mg/kg-10 mg/kg, 1 h before test, vs vehicle): increased the percentage of time spent investigating the male stimulus | body weight or general behaviour ([1]; repeated administration 15 mg/kg i.p. daily for 15 days): no changes in body weight or general behaviour | Ejaculation latency [2]: significantly decreased | Mount latency [2]: significantly decreased | percentage of animals ejaculating (within 30 minutes) [2]: increasing the percentage of animals ejaculating
